Test systems include SF-539; NCI-H460; TK-10; COLO 205; HT-29; HCT-15; Malme-3M; NCI-H522; U-251; ACHN; EKVX; HOP-92; SN12C; RXF 631; SF-295; CCRF-CEM; LOX IMVI; SW-620; DU-145; BT-549.
Common to all, as to test: NCI-60 cell line screen, 48 h

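Tested at 5 concentrations; 48 h exposure; 96-well plates; endpoints linearly interpolated, else capped at highest concentration. Here, GI50 denotes the concentration required for 50% inhibition of growth.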 Activity calls are given as the source filed them. Rule as the data show it: active = GI50 up to about 1.1 µM and inactive = higher.

Regarding `C#CC(C)(C)Oc1cc(O)c2c(=O)c3ccccc3n(C)c2c1`, the GI50 is 15.5 µM (inactive) in the experiment on SF-539; 24.5 µM (inactive) with NCI-H460; > 100 µM (inactive) in the experiment with TK-10; > 100 µM (inactive) in the experiment on COLO 205; 34 µM (inactive) with HT-29; above 100 µM in the experiment with HCT-15. Moreover, the GI50 with Malme-3M was > 100 µM (inactive); in the experiment with NCI-H522, > 100 µM (inactive); in the experiment with U-251 it was 42.1 µM (inactive); in the experiment on ACHN, 86.1 µM (inactive); in the experiment on EKVX, > 100 µM (inactive); in the experiment on HOP-92, > 100 µM (inactive). Further, the GI50 with SN12C was > 100 µM (inactive); with RXF 631, > 100 µM (inactive); with SF-295, > 100 µM (inactive); with CCRF-CEM it was 45.2 µM (inactive); in the experiment with LOX IMVI it was 19.3 µM (inactive).

Take `Cc1cccc(C)c1NC(=O)C(=O)Nn1c(NN)nc2ccccc2c1=O`: the GI50 was > 100 µM (inactive) in the experiment on SF-539; > 100 µM (inactive) in the experiment on NCI-H460; > 100 µM (inactive) in the experiment with TK-10; > 100 µM (inactive) with COLO 205; > 100 µM (inactive) with HT-29; above 100 µM in the experiment on HCT-15. The GI50 in the experiment with Malme-3M, in the experiment with NCI-H522, in the experiment on U-251, in the experiment on ACHN, in the experiment with SW-620 and in the experiment on EKVX was > 100 µM (inactive) in each case. Moreover, the GI50 in the experiment with HOP-92, in the experiment with SN12C, with RXF 631, with SF-295, with CCRF-CEM and in the experiment on LOX IMVI was > 100 µM (inactive) each time.

On to `CCCCOC(=O)NC(=O)c1cn(CCCOC(=O)CCCCCCCCC(=O)OCCCn2cc(C(=O)NC(=O)OCCCC)c(=O)[nH]c2=O)c(=O)[nH]c1=O`, for which the GI50 in the experiment with SF-539 is > 100 µM (inactive); with NCI-H460 it was > 100 µM (inactive); with TK-10, > 100 µM (inactive); with COLO 205, > 100 µM (inactive); with HT-29, > 100 µM (inactive); with HCT-15 it was above 100 µM. The GI50 with Malme-3M, in the experiment on U-251, in the experiment on ACHN, in the experiment on SW-620, in the experiment on EKVX and with HOP-92 was > 100 µM (inactive) throughout. In addition, the GI50 in the experiment with SN12C was > 100 µM (inactive); in the experiment on RXF 631, 98.6 µM (inactive); in the experiment on SF-295, > 100 µM (inactive); in the experiment with CCRF-CEM, > 100 µM (inactive); in the experiment on LOX IMVI it was > 100 µM (inactive).

For the compound `Cc1ccccc1-n1c(CCl)nc2ccc(Br)cc2c1=O`, the GI50 in the experiment on SF-539 is 7.16 µM (inactive); with NCI-H460, 13.5 µM (inactive); in the experiment on TK-10, 24.7 µM (inactive); in the experiment with COLO 205, 13.4 µM (inactive); with HT-29 it was 4.29 µM (inactive); with HCT-15, 3.59 µM. The GI50 in the experiment with Malme-3M was 17.3 µM (inactive); in the experiment with NCI-H522 it was 2.28 µM (inactive); in the experiment with U-251 it was 13.2 µM (inactive); in the experiment with ACHN, 30.1 µM (inactive); with SW-620 it was 3.13 µM (inactive); in the experiment on EKVX, 18.1 µM (inactive). Besides, the GI50 was 12.8 µM (inactive) with HOP-92; 0.434 µM (active) with SN12C; 16.9 µM (inactive) in the experiment on RXF 631; 11 µM (inactive) with SF-295; 0.278 µM (active) with CCRF-CEM; 0.0333 µM (active) in the experiment with LOX IMVI.

Consider `COc1c(I)c(OC)c2c(c1I)O[C@@H]1OCC[C@H]21`, for which the GI50 in the experiment with SF-539 is > 100 µM (inactive); with NCI-H460, 20.2 µM (inactive); with TK-10 it was 40.6 µM (inactive); in the experiment on COLO 205 it was 20 µM (inactive); in the experiment with HT-29 it was 39.4 µM (inactive); with HCT-15, 35.6 µM. Besides, the GI50 in the experiment with Malme-3M was 34 µM (inactive); in the experiment with U-251 it was 37.6 µM (inactive); with ACHN, 17.3 µM (inactive); in the experiment on SW-620, 35 µM (inactive); with EKVX, 74.8 µM (inactive); with HOP-92, 22.7 µM (inactive). In addition, the GI50 in the experiment on SN12C was 31.3 µM (inactive); in the experiment with RXF 631 it was 29.9 µM (inactive); with SF-295, 38.2 µM (inactive); in the experiment on CCRF-CEM, 27.5 µM (inactive); in the experiment on LOX IMVI, 32.4 µM (inactive).

As for `Cc1ccc(S(=O)(=O)NC(=O)C#CCOC2CCCCO2)cc1` (configuration not stated), the GI50 was > 100 µM (inactive) with SF-539; > 100 µM (inactive) with NCI-H460; > 100 µM (inactive) in the experiment on TK-10; > 100 µM (inactive) with HT-29; above 100 µM with HCT-15; > 100 µM (inactive) in the experiment with Malme-3M. Besides, the GI50 in the experiment on U-251, in the experiment on ACHN, with SW-620, in the experiment with EKVX, with HOP-92 and in the experiment with SN12C was > 100 µM (inactive) throughout. Also, the GI50 with RXF 631, with SF-295, in the experiment with CCRF-CEM and in the experiment with LOX IMVI was > 100 µM (inactive) in each case.

With `Cc1cc(Cl)ccc1NC(=O)CCCC(=O)C1C/C(=N/O)CC/C1=N\O` (configuration not stated), the GI50 is > 100 µM (inactive) in the experiment on SF-539; > 100 µM (inactive) in the experiment on NCI-H460; > 100 µM (inactive) with TK-10; > 100 µM (inactive) in the experiment with COLO 205; > 100 µM (inactive) with HT-29; above 100 µM in the experiment on HCT-15. Further, the GI50 in the experiment with Malme-3M, in the experiment on NCI-H522, with U-251, in the experiment on ACHN, in the experiment with SW-620 and in the experiment with EKVX was > 100 µM (inactive) throughout. The GI50 in the experiment with HOP-92, in the experiment on SN12C, in the experiment on RXF 631, in the experiment with SF-295 and in the experiment with CCRF-CEM was > 100 µM (inactive) throughout.

On to `COc1ccc2c(c1)[n+]([O-])c(/C(C)=N/NC(=O)c1ccccc1O)c(C)[n+]2[O-]`, for which the GI50 was > 100 µM (inactive) in the experiment with SF-539; > 100 µM (inactive) in the experiment with NCI-H460; > 100 µM (inactive) in the experiment with TK-10; > 100 µM (inactive) with HT-29; above 100 µM with HCT-15; > 100 µM (inactive) in the experiment with Malme-3M. For the same compound, the GI50 with NCI-H522, in the experiment with U-251, in the experiment on ACHN, with SW-620, in the experiment with EKVX and in the experiment on HOP-92 was > 100 µM (inactive) in each case. Besides, the GI50 in the experiment on SN12C, in the experiment on RXF 631, with SF-295, in the experiment on CCRF-CEM and with LOX IMVI was > 100 µM (inactive) throughout.

On to `Nc1ncc(N)c(NCC2(CO)CC(CCc3ccccc3)C2)n1` (configuration not stated), for which the GI50 in the experiment with SF-539 is 2.7 µM (inactive); in the experiment on NCI-H460, 13.1 µM (inactive); with TK-10 it was 12.5 µM (inactive); in the experiment on COLO 205, 3.71 µM (inactive); in the experiment with HT-29, 6.21 µM (inactive); in the experiment with HCT-15, 13.9 µM. The GI50 in the experiment with Malme-3M was 11 µM (inactive); with DU-145, 11.2 µM (inactive); in the experiment with NCI-H522 it was 0.718 µM (active); in the experiment with U-251 it was 6.58 µM (inactive); with ACHN, 12.1 µM (inactive); with SW-620 it was 9.98 µM (inactive). Besides, the GI50 in the experiment with BT-549 is 9.75 µM (inactive); in the experiment with EKVX it was 8.47 µM (inactive); in the experiment with HOP-92, 3.39 µM (inactive); in the experiment on SN12C, 7.67 µM (inactive); with SF-295 it was 11.1 µM (inactive); in the experiment on CCRF-CEM, 0.413 µM (active). Moreover, the GI50 in the experiment on LOX IMVI is 3.46 µM (inactive).

For the compound `COc1cc(Nc2cnc3cc(C(F)(F)F)ccc3n2)cc(OC)c1OC`, the GI50 with SF-539 was > 100 µM (inactive); in the experiment on NCI-H460 it was > 100 µM (inactive); with TK-10, > 100 µM (inactive); with COLO 205, > 100 µM (inactive); in the experiment with HT-29, > 100 µM (inactive); with HCT-15, above 100 µM. For the same compound, the GI50 with Malme-3M, with U-251, with ACHN, in the experiment with SW-620, in the experiment on EKVX and with HOP-92 was > 100 µM (inactive) throughout. Moreover, the GI50 in the experiment with SN12C, with RXF 631, with SF-295, in the experiment on CCRF-CEM and in the experiment on LOX IMVI was > 100 µM (inactive) throughout.

As for `CN(Cc1cnc2nc(N)nc(N)c2n1)c1ccc(C(=O)NCCCC(=O)O)cc1`, the GI50 is 8.75 µM (inactive) in the experiment with SF-539; 7.24 µM (inactive) in the experiment on NCI-H460; > 69 µM (inactive) in the experiment on TK-10; > 100 µM (inactive) in the experiment with COLO 205; > 100 µM (inactive) in the experiment with HT-29; 6.01 µM with HCT-15. Moreover, the GI50 is 95.9 µM (inactive) with Malme-3M; 8.49 µM (inactive) in the experiment on DU-145; 16.2 µM (inactive) in the experiment with NCI-H522; 77.3 µM (inactive) in the experiment with U-251; 6.78 µM (inactive) in the experiment with ACHN; 5.7 µM (inactive) in the experiment with SW-620. Moreover, the GI50 with BT-549 is > 65 µM (inactive); in the experiment with EKVX it was > 29 µM (inactive); in the experiment with HOP-92, > 100 µM (inactive); with SN12C, > 100 µM (inactive); in the experiment with SF-295, 12.3 µM (inactive); in the experiment on CCRF-CEM, 17.3 µM (inactive). The GI50 in the experiment with LOX IMVI is 4 µM (inactive).

Source of the values: ChEMBL document CHEMBL1201862, “PubChem BioAssay data set” (2004).
